Values of other authors as cited in patent US20110245202A1, “PHARMACEUTICAL COMPOSITION FOR THE TREATMENT OF RHINITIS” (priority 2003, published 2011).

Details: fraction of the action of naturally occurring (1R,2S)-ephedrine

SMILES: CN[C@H](C)[C@@H](O)c1ccccc1 [(1S,2R)-ephedrine]
- pharmacological action relative to the natural form (−)-ephedrine: approximately one third
